This note sets out measurements from patent US20260137698A1, “CYCLIN-DEPENDENT KINASE 7 INHIBITORS” (JOINT STOCK COMPANY «BIOCAD», priority 2022, published 2026).

Data set [1] has as its target CDK13/Cyclin K (Homo sapiens, UniProt Q14004). Put plainly: Inhibition of CDK13/Cyclin K kinase activity (ADP-Glo). It is filed as biochemical. On the procedure:
Measurements were carried out in a 5 μl reaction volume using a 384-well plate (Corning Inc., order no. 4513). The analyzed substances were titrated from 50 μM in increments of 4 at 11 concentration points in a normal strength kinase buffer A (Thermo Fisher Scientific Inc, cat. no. PV3189) supplemented with DTT (Sigma, orde. no. 646563-10X.5ML) and prepared with water (Panreac, order no. 701074). Kinase was diluted in an analogous buffer, mixed with test compounds in plate wells and preincubated for 10 minutes at 25° C. Following incubation, a mixture of reaction substrate (CDKtide (SignalChem, order no. C06-58) or Histone H1 (SignalChem, order no. H10-54N) or PDKtide (SignalChem, order no. P10-58) and ATP (SignalChem, order no. V915B) prepared on a normal strength kinase buffer A was added. 1% solution of dimethyl sulfoxide (DMSO) (Sigma-Aldrich, order no. D2438) in the reaction volume was used as a negative control. The final concentrations of all reaction components are shown in Table 5. The plate was centrifuged at 400 rcf (Eppendorf, 5804 R) for 1 minute and incubated for 40-60 minutes at 25° C. The amount of ATP consumed in the kinase reaction was then measured using the ADP-Glo™ detection system. Luminescence signal was measured using Spark 20M tablet multifunction reader (Tecan Group Ltd, Switzerland). IC50 value was calculated using Magellan 7.2 (Tecan Group Ltd, Switzerland) by approximating experimental points by four-parameter model with the optimization by Levenberg-Marquardt:
[formula] • where A is the upper asymptote; D is the lower asymptote; C is IC50, half-maximal inhibitory concentration of kinase, nM; B is the curvature (slope).

Data set [2] is described as follows: Passive membrane permeability through PAMPA artificial membrane, pH 7.4. The conditions noted are these: pH 7.4, 10 μmol, 20 hours at room temperature, mean of multiple measurements, read-out: PAMPA passive permeability Pe. The format is in vitro ADME. In short, it runs like this:
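Compound at 10 μmol in 0.01 M phosphate buffer pH 7.4 placed in donor wells over lecithin-phospholipid-impregnated PVDF filter, buffer in acceptor; 20 h at room temperature. Donor and acceptor levels measured by RP-HPLC-UV; Pe (cm/s) and membrane retention R (%) calculated.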

The nature of data set [3]: Microsomal stability in rat liver microsomes (RLM). It is filed as in vitro ADME. The conditions noted are these: rat liver microsomes 0.5 mg/ml, 1 μM compound, NADPH. The method, then:
(§1) The procedure for investigating the metabolism of selected compounds was carried out in microsomal fractions of the liver (of rats, mice, humans) in the presence of a phase I metabolism cofactor (NADPH).
(§2) The rate of enzymatic decomposition of the compound in liver microsomes in in vitro analysis was determined by keeping a reaction mixture comprising 0.5 mg/ml of pooled human, rat or mouse liver microsomes, 1 μM test compound, 1.5 mM […] (Carbosynth, UK, cat. no. NN108711101) and 1.5 mM magnesium chloride in 0.1 M sodium phosphate buffer (pH 7.4) in a solid-state thermostat at 37° C. (XenoTech, USA, order no. H2610, cat. no. R1000, cat. no. M1000). Incubation was carried out in three replicates.
(§3) To determine the stability of compounds under sample preparation conditions, an aliquot in two replicates with the test compound and a microsomal fraction devoid of the NADPH cofactor, which was incubated for 40 minutes at 37° C.
(§4) Reactions were stopped at 0, 10, 20, 30 and 40 min time points by way of adding an ice mixture of acetonitrile:methanol (3:1) comprising an internal standard.
(§5) Samples were then centrifuged to remove the precipitated protein, supernatants were analyzed using HPLC-MS/MS to determine in vitro clearance (CLint) of the compounds. The Agilent 6410 mass spectrometer (Agilent, USA) combined with the Agilent 1260 Infinity II HPLC liquid chromatograph (Agilent, USA) and a cooling autosampler controlled by MassHunter software (Agilent, USA) was used as an HPLC-MS/MS system. Chromatographic analysis was performed on a C18 reversed-phase HPLC column (Agilent, Waters or equivalent) in a gradient elution mode in a system of mobile phases: 0.1% formic acid in water/0.1% formic acid in acetonitrile, flow rate: 0.5 ml/min, column T=35° C. Mass spectrometric detection was performed with electrospray ionization in multiple reaction monitoring mode. Precursor ions, fragment ions and collision energies for each substance were selected experimentally.
(§6) A graph of dependence of the logarithmic ratio between substance's peak area and internal standard's peak area vs time was built. The dependent coefficient of this line corresponded to the elimination rate constant k, on the basis of which the in vitro clearance CLint was calculated:
(§7) Based on resulting in vitro clearance CLint values, the microsomal stability of the selected compounds for humans, rats and mice was concluded.

A short description of data set [4]: Microsomal stability in mouse liver microsomes (MLM). The format is in vitro ADME. The conditions noted are these: mouse liver microsomes 0.5 mg/ml, 1 μM compound, NADPH. On the procedure:
as §1, §2, §3, §4, §5, §6, §7

[5] abbreviates: mean of multiple measurement series, ATP 10 μM, read-out: CDK13/Cyclin K IC50.
[6] abbreviates: mean value from several measurements, read-out: IC50 CDK13/Cyclin K.

Where two headings read alike, the source gives them in different places.

CDK13/Cyclin K, sequence (Q14004 whole entry): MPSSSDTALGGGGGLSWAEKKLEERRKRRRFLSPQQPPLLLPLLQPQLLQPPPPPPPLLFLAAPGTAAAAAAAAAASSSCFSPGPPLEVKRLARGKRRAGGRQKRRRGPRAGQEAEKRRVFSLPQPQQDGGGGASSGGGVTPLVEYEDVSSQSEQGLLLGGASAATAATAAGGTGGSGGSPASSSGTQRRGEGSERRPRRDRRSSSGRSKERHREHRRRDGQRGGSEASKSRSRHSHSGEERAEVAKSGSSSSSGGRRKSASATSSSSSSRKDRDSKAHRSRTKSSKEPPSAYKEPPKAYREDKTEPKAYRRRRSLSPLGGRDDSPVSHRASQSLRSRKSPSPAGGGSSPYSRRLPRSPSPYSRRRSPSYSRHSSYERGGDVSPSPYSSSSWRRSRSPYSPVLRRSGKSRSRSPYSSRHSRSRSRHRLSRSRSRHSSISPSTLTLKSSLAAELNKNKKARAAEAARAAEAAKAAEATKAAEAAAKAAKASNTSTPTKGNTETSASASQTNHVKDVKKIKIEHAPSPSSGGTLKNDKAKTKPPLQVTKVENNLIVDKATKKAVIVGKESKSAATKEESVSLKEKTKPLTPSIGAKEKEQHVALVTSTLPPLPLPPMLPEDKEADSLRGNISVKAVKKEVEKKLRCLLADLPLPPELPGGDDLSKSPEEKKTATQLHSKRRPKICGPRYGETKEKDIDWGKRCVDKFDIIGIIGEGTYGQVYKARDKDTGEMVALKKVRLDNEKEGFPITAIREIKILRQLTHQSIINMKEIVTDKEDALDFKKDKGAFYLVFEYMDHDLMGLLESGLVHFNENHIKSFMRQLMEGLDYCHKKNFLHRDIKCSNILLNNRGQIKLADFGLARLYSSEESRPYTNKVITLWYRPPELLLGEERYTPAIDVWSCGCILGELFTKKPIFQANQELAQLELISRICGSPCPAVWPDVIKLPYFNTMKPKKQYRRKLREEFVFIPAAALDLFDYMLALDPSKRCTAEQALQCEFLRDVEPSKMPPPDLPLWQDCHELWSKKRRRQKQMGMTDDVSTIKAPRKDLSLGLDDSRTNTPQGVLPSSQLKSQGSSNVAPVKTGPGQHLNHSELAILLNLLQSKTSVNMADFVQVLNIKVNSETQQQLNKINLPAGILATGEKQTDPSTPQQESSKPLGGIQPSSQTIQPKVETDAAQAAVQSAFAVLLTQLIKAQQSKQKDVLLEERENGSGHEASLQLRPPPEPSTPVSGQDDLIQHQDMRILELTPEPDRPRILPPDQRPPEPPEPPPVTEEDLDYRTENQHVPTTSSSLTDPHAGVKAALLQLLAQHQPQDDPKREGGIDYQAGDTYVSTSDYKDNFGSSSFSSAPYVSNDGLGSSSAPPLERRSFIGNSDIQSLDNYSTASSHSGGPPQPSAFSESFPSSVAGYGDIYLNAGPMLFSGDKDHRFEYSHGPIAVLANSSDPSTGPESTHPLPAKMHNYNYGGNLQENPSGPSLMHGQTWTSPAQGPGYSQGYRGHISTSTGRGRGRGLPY
CDK13/Cyclin K, sequence (O75909 whole entry partner): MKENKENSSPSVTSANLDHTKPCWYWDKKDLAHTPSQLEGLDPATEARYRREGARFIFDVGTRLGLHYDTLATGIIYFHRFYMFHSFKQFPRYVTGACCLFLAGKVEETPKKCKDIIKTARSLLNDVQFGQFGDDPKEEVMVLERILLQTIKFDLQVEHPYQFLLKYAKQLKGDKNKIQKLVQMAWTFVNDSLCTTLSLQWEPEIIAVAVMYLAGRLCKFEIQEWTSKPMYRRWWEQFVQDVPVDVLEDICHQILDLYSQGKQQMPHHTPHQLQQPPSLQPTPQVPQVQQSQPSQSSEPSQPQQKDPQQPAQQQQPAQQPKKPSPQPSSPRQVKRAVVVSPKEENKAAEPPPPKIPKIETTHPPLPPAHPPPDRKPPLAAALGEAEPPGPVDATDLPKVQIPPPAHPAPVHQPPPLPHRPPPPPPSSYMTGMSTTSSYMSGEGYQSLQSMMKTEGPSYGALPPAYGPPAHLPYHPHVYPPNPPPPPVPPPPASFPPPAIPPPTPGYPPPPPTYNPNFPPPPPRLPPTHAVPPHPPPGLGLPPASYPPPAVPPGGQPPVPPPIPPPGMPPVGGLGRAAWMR

Take `CC1(C)CC[C@H](Nc2ncc(C(F)(F)F)c(-c3c[nH]c4c3CCCN(C3CC3)C4=O)n2)CN1` [CDK7_1225, 7-cyclopropyl-3-(2-{[(3S)-6,6-dimethylpiperidin-3-yl]amino}-5-(trifluoromethyl)py-rimidin-4-yl)-1H,4H,5H,6H,7H, 8H-pyrrolo[2,3-c]azepin-8-one]: the IC50 was 203 nM in data set [1] (setting [5]) and > 200 nM in data set [1] (setting [6]). In data set [2], the Papp at 20 h, 10 μmol lay within 1 to 5 ×10⁻⁶ cm/s. Also, the “RLM Clint” value in data set [3] is listed as “A (Clint < 20 μl/(min · mg of protein))”. Moreover, in data set [4], the “MLM Clint” value is “A (Clint < 20 μl/(min · mg of protein))”.
Turning to `CN1CCCc2c(-c3nc(N[C@H]4CCCNC4)ncc3C(F)(F)F)c[nH]c2C1=O` [CDK7_953, 7-methyl-3-(2-{[(3S)-piperidin-3-yl]amino}-5-(trifluoromethyl)py-rimidin-4-yl)-1H,4H,5H,6H,7H, 8H-pyrrolo[2,3-c]azepin-8-one], the IC50 in data set [1] (setting [5]) was 20 nM; in data set [1] (setting [6]) it was 5 to 50 nM. For the same compound, in data set [2], the Papp at 20 h, 10 μmol was 1 to 5 ×10⁻⁶ cm/s. For the same compound, the “RLM Clint” value in data set [3] was “A (Clint < 20 μl/(min · mg of protein))”. In addition, the “MLM Clint” value in data set [4] is on record as “A (Clint < 20 μl/(min · mg of protein))”.
